Data from ChEMBL document CHEMBL1275379, “Indazolylpyrazolopyrimidine as highly potent B-Raf inhibitors with in vivo activity” (J Med Chem, 2010).
The source made the active and inactive calls. No cut-off for these calls is given here.

Legend:
[1] = molecular target: Serine/threonine-protein kinase B-raf (Homo sapiens, UniProt P15056); assay: Inhibition of BRAF
A-375 = assay: Growth inhibition of human A375 cells after 4 days by MTT assay; type: functional, cell-based; conditions: A-375, 96 h
[2] = Half life in human liver microsomes; type: ADME, Microsome
[3] = tested on: Serine/threonine-protein kinase B-raf (Homo sapiens), P15056 [V600E]; assay: Inhibition of BRAF V600E mutant in human A375 cells assessed as reduction of ERK phosphorylation; type: cell-based; conditions: A-375
Serine/threonine-protein kinase B-raf (Homo sapiens), P15056 [V600E], sequence (P15056 whole entry V600E): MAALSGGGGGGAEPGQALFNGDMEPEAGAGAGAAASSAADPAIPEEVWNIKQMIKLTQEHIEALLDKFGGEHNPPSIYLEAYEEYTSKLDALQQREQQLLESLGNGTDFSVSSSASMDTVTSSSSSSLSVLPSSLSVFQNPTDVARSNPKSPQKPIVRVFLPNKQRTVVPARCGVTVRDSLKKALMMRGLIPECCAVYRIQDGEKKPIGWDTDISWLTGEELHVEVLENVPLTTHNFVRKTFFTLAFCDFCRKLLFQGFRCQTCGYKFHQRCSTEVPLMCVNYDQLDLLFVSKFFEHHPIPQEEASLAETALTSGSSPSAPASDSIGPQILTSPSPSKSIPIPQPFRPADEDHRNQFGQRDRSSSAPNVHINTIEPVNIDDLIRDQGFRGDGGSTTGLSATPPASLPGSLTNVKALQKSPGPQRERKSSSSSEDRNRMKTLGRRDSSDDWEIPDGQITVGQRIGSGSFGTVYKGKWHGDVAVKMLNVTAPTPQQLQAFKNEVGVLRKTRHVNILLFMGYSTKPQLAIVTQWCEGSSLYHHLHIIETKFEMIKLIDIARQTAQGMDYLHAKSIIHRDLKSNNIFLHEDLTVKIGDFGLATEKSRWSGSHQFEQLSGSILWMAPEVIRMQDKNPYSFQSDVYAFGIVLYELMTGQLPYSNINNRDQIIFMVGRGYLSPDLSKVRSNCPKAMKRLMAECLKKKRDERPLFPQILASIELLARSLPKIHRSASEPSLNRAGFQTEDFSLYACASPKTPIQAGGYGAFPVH

[4] = Half life in nude mouse liver microsomes; type: ADME, Microsome

Serine/threonine-protein kinase B-raf, sequence (P15056 whole entry): as the sequence (P15056 whole entry V600E) above, with E600V counted along it

Row | Structure (SMILES) | IC50 [1] [nM] | IC50 (A-375) [nM] | half-life [2] [min] | inhibition [3] | half-life [4] [min]
1 | c1cc(-c2c(-c3ccncc3)nn3c(-c4ccc(CN5C[C@@H]6C[C@H]5CN6)cc4)ccnc23)c2cn[nH]c2c1 | 2.3 | 9480 | – | – | –
2 | CN(C)c1cc(N2C[C@@H]3C[C@H]2CN3C)ccc1-c1ccnc2c(-c3cccc4[nH]ncc34)c(-c3ccncc3)nn12 | – | 1850 | – | – | –
3 | CN1C[C@@H]2C[C@H]1CN2c1ccc(-c2ccnc3c(-c4cccc5[nH]ncc45)c(-c4ccncc4)nn23)c(Br)c1 | < 0.32 | – | – | – | –
4 | Cc1cc(N2C[C@@H]3C[C@H]2CN3C)ccc1-c1ccnc2c(-c3cccc4[nH]ncc34)c(-c3ccncc3)nn12 | 0.51 | 137 | – | – | –
5 | CN1C[C@@H]2C[C@H]1CN2c1cccc(-c2ccnc3c(-c4cccc5[nH]ncc45)c(-c4ccncc4)nn23)c1 | – | 1400 | – | – | –
6 | c1cc(-c2c(-c3ccncc3)nn3c(-c4ccc(CN5C[C@@H]6C[C@H]5CO6)cc4)ccnc23)c2cn[nH]c2c1 | – | 945 | – | – | –
7 | CN1C[C@@H]2C[C@H]1CN2c1ccc(-c2ccnc3c(-c4cccc5[nH]ncc45)c(-c4ccncc4)nn23)c2ccccc12 | 1 | 25000 | – | – | –
8 | Fc1cc(CN2C3COCC2COC3)ccc1-c1ccnc2c(-c3cccc4[nH]ncc34)c(-c3ccncc3)nn12 | 0.77 | 304 | – | – | –
9 | Cc1cc(N2C[C@@H]3C[C@H]2CN3C)ccc1-c1ccnc2c(-c3ccc(F)c4[nH]ncc34)c(-c3ccncc3)nn12 | < 0.32 | 188 | – | – | –
10 | CN1C[C@@H]2C[C@H]1CN2c1ccc(-c2ccnc3c(-c4cccc5[nH]ncc45)c(-c4ccncc4)nn23)cc1 | 1.2 | 202 | – | – | –
11 | CN1C[C@@H]2C[C@H]1CN2c1c(F)cc(-c2ccnc3c(-c4cccc5[nH]ncc45)c(-c4ccncc4)nn23)cc1F | – | 1250 | – | – | –
12 | CN1C[C@@H]2CC[C@H]1CN2c1ccc(-c2ccnc3c(-c4cccc5[nH]ncc45)c(-c4ccncc4)nn23)cc1 | 0.71 | 185 | – | – | –
13 | CN1C[C@@H]2C[C@H]1CN2c1ccc(-c2ccnc3c(-c4cccc5[nH]ncc45)c(-c4ccncc4)nn23)cc1C(F)(F)F | – | 273 | – | – | –
14 | Fc1cc(CN2C[C@@H]3C[C@H]2CO3)ccc1-c1ccnc2c(-c3cccc4[nH]ncc34)c(-c3ccncc3)nn12 | 1.2 | 268 | – | – | –

Second part, the molecule after the results:

Row | IC50 [1] [nM] | IC50 (A-375) [nM] | half-life [2] [min] | inhibition [3] | half-life [4] [min] | Structure (SMILES)
15 | < 0.1 | 39 | – | – | – | CN1C[C@@H]2C[C@H]1CN2c1ccc(-c2ccnc3c(-c4cccc5[nH]ncc45)c(-c4ccncc4)nn23)c(Cl)c1
16 | < 0.32 | 56 | 11 | – | – | CCN1C[C@@H]2C[C@H]1CN2c1cc(F)c(-c2ccnc3c(-c4cccc5[nH]ncc45)c(-c4ccncc4)nn23)c(F)c1
17 | – | 77 | – | Active | – | CN1C[C@@H]2C[C@H]1CN2c1ccc(-c2ccnc3c(-c4cccc(O)c4)c(-c4ccncc4)nn23)cc1
18 | 0.61 | 107 | – | – | – | CN1C[C@@H]2C[C@H]1CN2c1ccc(-c2ccnc3c(-c4cccc5[nH]ncc45)c(-c4ccncc4)nn23)c(F)c1F
19 | 0.52 | 78 | – | – | – | Fc1cc(CN2C[C@H]3C[C@@H]2CO3)ccc1-c1ccnc2c(-c3cccc4[nH]ncc34)c(-c3ccncc3)nn12
20 | 0.41 | 118 | – | – | – | CN1C[C@@H]2CC[C@H]1CN2c1ccc(-c2ccnc3c(-c4cccc5[nH]ncc45)c(-c4ccncc4)nn23)c(F)c1
21 | 0.11 | 17 | – | – | – | CN1C[C@@H]2C[C@H]1CN2c1cc(F)c(-c2ccnc3c(-c4ccc(F)c5[nH]ncc45)c(-c4ccncc4)nn23)c(F)c1
22 | 0.23 | 44 | 17 | Active | > 30 | CN1C[C@@H]2C[C@H]1CN2c1ccc(-c2ccnc3c(-c4cccc5[nH]ncc45)c(-c4ccncc4)nn23)c(F)c1
23 | < 0.1 | 33 | – | – | – | CN1C[C@@H]2C[C@H]1CN2c1ccc(-c2ccnc3c(-c4ccc(F)c5[nH]ncc45)c(-c4ccncc4)nn23)c(F)c1
24 | 0.35 | 70 | – | – | – | CN1C[C@@H]2C[C@H]1CN2c1c(F)c(F)c(-c2ccnc3c(-c4cccc5[nH]ncc45)c(-c4ccncc4)nn23)c(F)c1F
25 | 0.38 | 87 | – | – | – | CN1C[C@@H]2C[C@H]1CN2c1cc(F)c(-c2ccnc3c(-c4cccc5[nH]ncc45)c(-c4ccncc4)nn23)cc1F
26 | < 0.32 | 78 | 3 | – | 5 | Fc1cc(N2C[C@@H]3C[C@H]2CN3C2CCC2)cc(F)c1-c1ccnc2c(-c3cccc4[nH]ncc34)c(-c3ccncc3)nn12
27 | < 0.32 | 89 | 3 | – | 4 | CC(C)CN1C[C@@H]2C[C@H]1CN2c1cc(F)c(-c2ccnc3c(-c4cccc5[nH]ncc45)c(-c4ccncc4)nn23)c(F)c1
28 | < 0.32 | 55 | 5 | – | 17 | CC(C)N1C[C@@H]2C[C@H]1CN2c1cc(F)c(-c2ccnc3c(-c4cccc5[nH]ncc45)c(-c4ccncc4)nn23)c(F)c1
29 | 0.5 | 68 | – | – | – | CN1C[C@@H]2C[C@H]1CN2c1ccc(-c2ccnc3c(-c4ccc(F)c5[nH]ncc45)c(-c4ccncc4)nn23)cc1
